For test [1], the target named is T1, anthrax lethal factor (LF) protease (Bacillus anthracis, UniProt P15917). Nature of the test: biochemical. It counts as biochemical.
A further test deals with furin (Homo sapiens, UniProt P09958). Description: Furin inhibition, fluorogenic substrate cleavage assay. It counts as biochemical.
In the next test the target is MMP-9 (Homo sapiens, UniProt P14780). Description: biochemical.
Test [2] addresses botulinum neurotoxin/A (BoNT/A) (Clostridium botulinum, UniProt P0DPI1). Description: biochemical. It is filed as biochemical.
Test [3] has as its target T1, anthrax lethal factor (LF) protease. It is filed as biochemical.
The target of a further test is cathepsin B (Homo sapiens, UniProt P07858). Nature of the test: biochemical.
The target of the next test is cathepsin D (Homo sapiens, UniProt P07339). Nature of the test: biochemical.
The next test has as its target trypsin (Homo sapiens, UniProt P07477). Description: biochemical.

Where a name gives a salt, the structure may show the parent alone. Bounds are passed on as bounds.

Sequence of furin (P09958 108-794): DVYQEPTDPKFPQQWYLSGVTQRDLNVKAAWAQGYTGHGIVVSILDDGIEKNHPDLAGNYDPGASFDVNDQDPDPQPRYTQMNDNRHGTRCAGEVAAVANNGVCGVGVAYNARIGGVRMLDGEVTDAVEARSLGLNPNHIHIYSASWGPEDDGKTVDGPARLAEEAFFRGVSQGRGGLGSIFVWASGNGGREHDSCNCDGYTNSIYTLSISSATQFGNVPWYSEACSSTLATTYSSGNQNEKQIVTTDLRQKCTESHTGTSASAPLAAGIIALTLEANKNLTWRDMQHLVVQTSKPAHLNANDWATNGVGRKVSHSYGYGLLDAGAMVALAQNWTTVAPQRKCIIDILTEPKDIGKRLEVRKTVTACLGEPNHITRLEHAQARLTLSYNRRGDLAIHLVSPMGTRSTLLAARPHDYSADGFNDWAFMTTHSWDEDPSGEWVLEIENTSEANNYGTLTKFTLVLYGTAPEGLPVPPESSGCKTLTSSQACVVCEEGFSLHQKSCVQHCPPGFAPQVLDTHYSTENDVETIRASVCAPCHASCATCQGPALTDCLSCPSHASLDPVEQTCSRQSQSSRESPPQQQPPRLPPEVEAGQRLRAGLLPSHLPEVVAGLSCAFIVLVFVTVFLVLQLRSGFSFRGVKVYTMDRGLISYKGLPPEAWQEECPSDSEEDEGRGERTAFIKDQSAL
T1 sequence (P15917 34-809 limits assumed): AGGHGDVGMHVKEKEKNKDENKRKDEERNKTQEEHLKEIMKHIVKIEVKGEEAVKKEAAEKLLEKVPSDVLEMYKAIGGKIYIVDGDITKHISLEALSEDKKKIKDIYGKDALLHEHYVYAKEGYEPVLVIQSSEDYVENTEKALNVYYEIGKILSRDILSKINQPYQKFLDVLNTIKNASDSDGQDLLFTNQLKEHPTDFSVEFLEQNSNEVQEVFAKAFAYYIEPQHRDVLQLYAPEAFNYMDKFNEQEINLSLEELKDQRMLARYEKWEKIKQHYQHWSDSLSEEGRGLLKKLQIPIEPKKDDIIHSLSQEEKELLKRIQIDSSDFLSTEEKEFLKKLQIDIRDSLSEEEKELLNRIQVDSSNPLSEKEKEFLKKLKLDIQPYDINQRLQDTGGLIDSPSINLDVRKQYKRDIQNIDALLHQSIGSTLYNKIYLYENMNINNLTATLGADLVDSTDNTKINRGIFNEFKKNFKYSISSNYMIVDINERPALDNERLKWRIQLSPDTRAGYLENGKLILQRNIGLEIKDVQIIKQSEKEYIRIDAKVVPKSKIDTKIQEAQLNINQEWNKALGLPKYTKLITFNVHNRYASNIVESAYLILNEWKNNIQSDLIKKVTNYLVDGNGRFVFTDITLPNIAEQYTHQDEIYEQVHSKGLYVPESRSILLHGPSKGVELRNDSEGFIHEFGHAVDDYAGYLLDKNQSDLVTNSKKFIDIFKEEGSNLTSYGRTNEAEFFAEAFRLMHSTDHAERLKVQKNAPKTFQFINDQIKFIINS
Sequence of botulinum neurotoxin/A (BoNT/A) (P0DPI1 whole entry, looked up): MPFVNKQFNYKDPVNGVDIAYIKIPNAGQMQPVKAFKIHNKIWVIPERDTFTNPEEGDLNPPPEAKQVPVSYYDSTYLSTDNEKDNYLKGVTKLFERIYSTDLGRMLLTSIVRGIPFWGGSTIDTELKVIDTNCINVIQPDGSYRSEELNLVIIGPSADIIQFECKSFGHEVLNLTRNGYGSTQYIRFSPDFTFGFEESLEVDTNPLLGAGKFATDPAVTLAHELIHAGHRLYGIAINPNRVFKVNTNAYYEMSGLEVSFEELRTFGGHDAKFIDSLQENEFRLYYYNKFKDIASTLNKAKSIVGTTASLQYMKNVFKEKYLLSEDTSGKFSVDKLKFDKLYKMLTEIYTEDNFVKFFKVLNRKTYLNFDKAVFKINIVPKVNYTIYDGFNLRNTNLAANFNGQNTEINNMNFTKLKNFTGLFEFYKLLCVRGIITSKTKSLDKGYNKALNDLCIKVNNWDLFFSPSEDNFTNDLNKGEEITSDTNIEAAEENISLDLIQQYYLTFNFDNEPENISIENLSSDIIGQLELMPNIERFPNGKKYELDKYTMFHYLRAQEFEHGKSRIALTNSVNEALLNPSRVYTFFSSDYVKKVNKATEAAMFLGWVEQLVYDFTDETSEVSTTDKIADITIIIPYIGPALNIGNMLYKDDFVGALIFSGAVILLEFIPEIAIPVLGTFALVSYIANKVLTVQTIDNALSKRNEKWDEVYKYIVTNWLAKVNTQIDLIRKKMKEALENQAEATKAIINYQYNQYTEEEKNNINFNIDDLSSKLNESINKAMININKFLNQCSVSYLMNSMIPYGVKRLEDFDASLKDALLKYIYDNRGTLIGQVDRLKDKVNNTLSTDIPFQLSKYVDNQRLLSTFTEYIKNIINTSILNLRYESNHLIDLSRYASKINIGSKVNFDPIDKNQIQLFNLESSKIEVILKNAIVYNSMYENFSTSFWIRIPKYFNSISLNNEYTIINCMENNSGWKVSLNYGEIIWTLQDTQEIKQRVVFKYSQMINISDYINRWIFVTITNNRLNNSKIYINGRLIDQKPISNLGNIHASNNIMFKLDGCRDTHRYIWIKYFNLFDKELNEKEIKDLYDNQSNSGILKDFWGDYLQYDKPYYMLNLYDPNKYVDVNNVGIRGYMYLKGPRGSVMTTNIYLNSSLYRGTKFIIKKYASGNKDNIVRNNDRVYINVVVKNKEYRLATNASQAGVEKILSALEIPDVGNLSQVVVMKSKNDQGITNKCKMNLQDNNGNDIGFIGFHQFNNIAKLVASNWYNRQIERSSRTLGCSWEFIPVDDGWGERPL
Sequence of MMP-9 (P14780 94-707, species assumed): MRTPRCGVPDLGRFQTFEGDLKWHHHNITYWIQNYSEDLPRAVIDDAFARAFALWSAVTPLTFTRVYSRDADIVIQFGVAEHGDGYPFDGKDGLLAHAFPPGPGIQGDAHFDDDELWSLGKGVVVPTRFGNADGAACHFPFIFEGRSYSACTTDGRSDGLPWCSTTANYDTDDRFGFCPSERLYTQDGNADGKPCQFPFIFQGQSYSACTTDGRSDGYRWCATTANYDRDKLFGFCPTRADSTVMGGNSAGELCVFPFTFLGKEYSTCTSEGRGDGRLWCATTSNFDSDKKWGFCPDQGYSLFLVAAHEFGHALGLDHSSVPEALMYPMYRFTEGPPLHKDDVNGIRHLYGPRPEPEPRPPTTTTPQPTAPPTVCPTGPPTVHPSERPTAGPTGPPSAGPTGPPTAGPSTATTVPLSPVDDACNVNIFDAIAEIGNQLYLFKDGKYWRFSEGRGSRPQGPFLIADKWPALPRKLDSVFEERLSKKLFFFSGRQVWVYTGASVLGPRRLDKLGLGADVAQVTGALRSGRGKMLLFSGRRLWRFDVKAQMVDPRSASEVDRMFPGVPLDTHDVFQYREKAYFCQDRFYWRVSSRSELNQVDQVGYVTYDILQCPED
Sequence of cathepsin D (P07339 65-412, species assumed): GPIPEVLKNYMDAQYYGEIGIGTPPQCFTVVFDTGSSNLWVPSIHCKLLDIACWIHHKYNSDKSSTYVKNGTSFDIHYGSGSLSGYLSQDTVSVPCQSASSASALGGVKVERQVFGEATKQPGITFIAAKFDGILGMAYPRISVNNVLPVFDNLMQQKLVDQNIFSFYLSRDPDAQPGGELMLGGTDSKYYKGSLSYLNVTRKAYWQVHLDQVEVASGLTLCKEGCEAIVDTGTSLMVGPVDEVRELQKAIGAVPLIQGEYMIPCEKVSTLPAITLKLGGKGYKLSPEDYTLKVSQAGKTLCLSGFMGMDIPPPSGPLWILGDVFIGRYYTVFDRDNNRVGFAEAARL

Usually Ki stands for the equilibrium dissociation constant of an inhibitor or competing ligand from its target. A lower Ki goes with higher affinity. Regarding `CC(=O)N[C@@H](CCCNC(=N)N)C(=O)N[C@@H](CCCNC(=N)N)C(=O)N[C@@H](CCCNC(=N)N)C(=O)N[C@@H](CCCNC(=N)N)C(=O)N[C@@H](CCCNC(=N)N)C(=O)N[C@@H](CCCNC(=N)N)C(N)=O` [Ac-RRRRRR-NH2], in test [1], the affinity corresponds to a Ki of 0.12 µM.

Turning to `CC(=O)N[C@@H](CCCNC(=N)N)C(=O)N[C@@H](CCCNC(=N)N)C(=O)N[C@@H](CCCNC(=N)N)C(=O)N[C@@H](CCCNC(=N)N)C(=O)N[C@@H](CCCNC(=N)N)C(=O)N[C@@H](CCCNC(=N)N)C(=O)O` [Ac-RRRRRR-OH], the inhibitory constant (Ki) was determined as 0.05 µM on furin and 0.29 ± 0.04 µM in test [1].

A word on the IC50: it is the concentration that inhibits the measured activity by half. A higher IC50 goes with weaker potency. Consider `NCC[C@H](O)C(=O)N[C@@H]1C[C@H](N)[C@@H](O[C@H]2O[C@H](CN)[C@@H](O)[C@H](O)[C@H]2O)[C@H](O)[C@H]1O[C@H]1O[C@H](CO)[C@@H](O)[C@H](N)[C@H]1O` [Amikacin], for which the Ki at MMP-9 is more than 300 µM; in test [1], 23.3 µM. Moreover, the IC50 in test [2] was more than 300 µM.

With `CN[C@@H]1[C@@H](O[C@H]2O[C@H](CO)[C@@H](N)[C@H](O)[C@H]2O)OC2C[C@@H](N)[C@@H](O[C@H]3[C@H](O)[C@@H](O)[C@H](N)C[C@@H]3N)OC2[C@@H]1O` (stereo partly drawn) [Apramycin], the Ki at MMP-9 was more than 300 µM; in test [1] it was 111 µM. The concentration for half-maximal inhibition (IC50) in test [2] is more than 300 µM.

`CNC(=O)[C@H](Cc1c[nH]c2ccccc12)NC(=O)[C@@H](CC(=O)NO)CC(C)C` [GM 6001]: in test [2], the half-inhibitory concentration (IC50) was more than 300 µM. In addition, the inhibition constant (Ki) in test [1] amounted to 7.2 ± 1.76 µM.

`N=C(N)NCCC[C@@H](N)C(=O)N[C@H](CCCNC(=N)N)C(=O)N[C@H](CCCNC(=N)N)C(=O)N[C@H](CCCNC(=N)N)C(=O)N[C@H](CCCNC(=N)N)C(=O)N[C@H](CCCNC(=N)N)C(N)=O` [H-(D-Arg)-(D-Arg)-(D-Arg)-(D-Arg)-(D-Arg)-(D-Arg)-NH2]: the Ki is 0.06 µM on furin and 0.04 ± 0.02 µM in test [1].

For the compound `NC(N)=NCCC[C@H](NC(=O)[C@H](CCCN=C(N)N)NC(=O)[C@H](CCCN=C(N)N)NC(=O)[C@H](CCCN=C(N)N)NC(=O)[C@H](CCCN=C(N)N)NC(=O)[C@@H](N)CCCN=C(N)N)C(=O)O` [H-RRRRRR-OH], the values for the Ki (on furin; in test [1]) were 0.06 µM and 0.24 µM, respectively.

In the case of `NC[C@H]1O[C@H](O[C@H]2[C@H](O)[C@@H](O)[C@H](N)C[C@@H]2N)[C@H](N)[C@@H](O)[C@@H]1O` [Neamine (free base), Neamine], the values for the inhibition constant Ki (on MMP-9; in test [1]) were more than 300 µM and 31.1 ± 5.6 µM, respectively. In test [2], this compound yielded an IC50 of 175 µM. Moreover, in test [3], the “effect of DNA or RNA on concentration-dependent LF inhibitory activity” value was “unaffected by DNA or RNA”.

In the case of `N=C(N)NC[C@@H]1O[C@H](O[C@H]2[C@@H](O)[C@H](O[C@@H]3[C@@H](O)[C@H](NC(=N)N)C[C@H](NC(=N)N)[C@H]3O[C@H]3O[C@H](CNC(=N)N)[C@@H](O)[C@H](O)[C@H]3NC(=N)N)O[C@@H]2CO)[C@H](NC(=N)N)[C@@H](O)[C@@H]1O` [Neomycin B hexaguanyl hexatrifluoroacetate salt], the Ki is more than 170 µM at MMP-9, 1.5 µM on furin and 0.03 µM in test [1]. This compound returned an IC50 in test [2] of 14 µM.

Consider `NC[C@@H]1O[C@H](O[C@H]2[C@@H](O)[C@H](O[C@@H]3[C@@H](O)[C@H](N)C[C@H](N)[C@H]3O[C@H]3O[C@H](CN)[C@@H](O)[C@H](O)[C@H]3N)O[C@@H]2CO)[C@H](N)[C@@H](O)[C@@H]1O` [Neomycin B tris-sulfate], for which the figures for the Ki (on MMP-9; in test [1]) were more than 300 µM and 0.71 ± 0.04 µM, respectively. In test [2], this compound returned an IC50 of 92.5 µM. In addition, in test [3], the “right shift in potency as LF inhibitor caused by DNA” value is ~ 10 fold.

Take `NCCCCN` [Putrescine (1,4-diaminobutane), 1,4-diaminobutane]: the inhibition constant (Ki) (on MMP-9; in test [1]) was more than 300 µM throughout. In test [2], this compound yielded an IC50 of more than 300 µM.

`CN[C@@H]1[C@@H](O)[C@@H](O[C@@H]2[C@@H](O)[C@H](O[C@H]3OC(CN)=CC[C@H]3N)[C@@H](N)C[C@H]2N)OC[C@]1(C)O` [Sisomicin Sulfate]: the Ki was more than 300 µM at MMP-9 and 1.8 µM in test [1]. In addition, the IC50 in test [2] is more than 300 µM.

Regarding `NCCCCNCCCN` [Spermidine], half-maximal inhibition in test [2] (IC50) was put at 76 µM. In addition, in test [1], the inhibition constant Ki is more than 100 µM and the “LF inhibition (in words)” value is listed as “weaker than spermine but were still concentration-dependent inhibitors”.

As for `NCCCNCCCCNCCCN` [Spermine, diphosphate salt], the figures for the inhibition constant Ki (on MMP-9; in test [2]; in test [1]) were more than 300 µM, 46 ± 6 µM and 0.9 ± 0.09 µM, respectively. In addition, the IC50 in test [2] was 57 µM; at cathepsin B, more than 500 µM; against cathepsin D, more than 500 µM; on trypsin it was more than 500 µM. Besides, the “fold weaker as botulinum protease inhibitor than as anthrax LF inhibitor” value in test [2] was more than 40 fold. For the same compound, in test [3], the “effect of DNA or RNA on concentration-dependent LF inhibitory activity” value is on record as “unaffected by DNA or RNA”.

On to `N=C(N)NC[C@H]1O[C@H](O[C@H]2[C@H](O)[C@@H](O)[C@H](NC(=N)N)C[C@@H]2NC(=N)N)[C@H](NC(=N)N)[C@@H](O)[C@@H]1O` [Tetraguanyl neamine, free base, Tetraguanyl neamine], for which, in test [1], the inhibitory constant (Ki) came out at 0.3 µM.

`CNC(C)C1CCC(N)C(OC2C(N)CC(N)C(OC3OCC(C)(O)C(NC)C3O)C2O)O1` (stereo not drawn) [gentamicin]: in test [1], the “LF inhibition (in words)” value is on record as “inhibited LF enzyme activity”.

Regarding `NCCC[C@H](N)C(=O)O` [ornithine], the “LF inhibition (in words)” value in test [1] is “weaker than spermine but were still concentration-dependent inhibitors”.

The values are drawn from PMC1513218 (BMC Pharmacology, 2006).
